# Results taken from a melting point compilation (Tetko et al.; mined from patent text by program, amines drawn as free bases though some values may be those of a salt).
# Residues, ends and D or L forms follow the SMILES beside them. *: point of attachment. Cbz = O=C(OCc1ccccc1)*; tBu = CC(C)(C)*
row,Structure (SMILES),melting point [°C]
1,CCOC(=O)c1cc(-n2c(=O)cc(C)n(C)c2=O)ccc1Cl,120 to 122
2,CCCc1c2oc(C(=O)O)cc(=O)c2cc2c(=O)cc(N(C(C)=O)C(C)=O)oc12,267
3,COc1ccc(C(=O)Nc2c(Cl)cncc2Cl)c2c3ccccc3n(Cc3ccc(F)cc3)c12,222 to 225
4,N#CC=Cc1ccc(Cc2ncc[nH]2)cc1,118 to 120
5,O=C(O)c1c([N+](=O)[O-])ccc2c1OCCO2,188
6,O=Cc1ccc2ccc3c4ccccc4ccc3c2c1,177 to 178
7,OCCCC1(c2ccccc2)OCCO1,39 to 42
8,O=S(=O)(c1cnn(-c2c(Cl)cc(C(F)(F)F)cc2Cl)c1Br)C(F)(F)F,90 to 91
9,CCOP(=O)(OCC)C(Cc1cc(C)c(O)c(OC)c1)c1cccnc1 (centres undefined),85 to 87
10,O=Cc1cc2c(ccc3c4ccccc4ccc23)o1,169
11,CC(=O)c1coc(S(N)(=O)=O)c1,135 to 136
12,CCn1ncc2c3noc(C)c3cnc21,181 to 182
13,O=CN1CCC(Oc2c(F)c(F)c(F)c(F)c2F)(c2ccccc2)CC1,118 to 119
14,CS(=O)(=O)c1ncc(OCc2ccccc2)cn1,100 to 102
15,CCN(CCNC(=O)c1ccnc(F)c1)CCNC(=O)c1cnc2cc(I)ccc2n1,146 to 148
16,COC(C)C(=O)Nc1c(C(=O)c2ccccc2)[nH]c2cc(Cl)ccc12 (centres undefined),169 to 171
17,O=Cc1nccn1Cc1ccccc1[N+](=O)[O-],141 to 144
18,CC1=C(C(O)c2ccc3c(c2)CCN(C(N)=O)C3)C(C)(C)CCC1 (centres undefined),88.3 to 89
19,COc1ccc2c(c1)c(Cc1cc(=O)n(C3CCCCC3)[nH]1)c(C)n2C(=O)c1ccc(Cl)cc1,187 to 188
20,CCCOC(=O)c1cc(C(=O)Nc2ccccc2O)cc(Br)c1O,198 to 200
21,COc1ccccc1C(=O)c1cc2ccccc2[nH]1,129 to 130
22,O=C(O)C=Cc1ccc(O)c(Cl)c1,180 to 182
23,CC(=O)Oc1c(C)c(C)c2c(c1C)CC(C)(C(=O)Nc1cnc3c(C)cc(C)cc3c1-c1ccccc1Cl)O2 (centres undefined),259 to 261
24,O=C(Cl)Oc1cccc(NC(=O)C2CC2)c1,94
25,CC(C)=NOCc1nc2c(N)nc3ccccc3c2s1,152 to 153

row,Structure (SMILES),melting point [°C]
1,CN(C)C(=O)N(C)c1nnc(C(C)(C)CCl)s1,80 to 82
2,CCCNC(=O)c1cc(-c2ccc(OC)cc2)nn(CC2CCCC2)c1=O,110
3,Cc1c(O)nc2ccccc2c1C(=O)O,> 300
4,Cc1ccc(NC(=O)c2ccc(CN(C)C)c(C(F)(F)F)c2)cc1Br,169 to 172
5,CS(=O)(=O)Nc1ccc(CCCOCCCCCCNCC(O)c2ccc(O)c(CO)c2)cc1 (centres undefined),48 to 50
6,Cc1ccccc1-c1c(Cn2cnc3c(N)ncnc32)oc2ccc(Br)cc2c1=O,252 to 255
7,Cc1ccnc(-c2cccc(Oc3ccccc3C)n2)n1,121
8,Sc1nnc2c3ccccc3cnn12,270 to 280
9,N#Cc1ccc(Cc2nccc(-c3ccc(C#N)cc3)n2)cc1,155 to 156
10,Cc1ccc2nccc(Cl)c2c1,47 to 51
11,CCOCCOc1ccc2c(c1)C(N(CC)S(C)(=O)=O)CC(C)(C)O2 (centres undefined),73 to 75
12,O=S(=O)(OS(=O)(=O)C1CCCCC1)C1CCCCC1,97 to 100
13,O=C(O)c1c(Cl)c([N+](=O)[O-])cc([N+](=O)[O-])c1Nc1ccc(OCc2ccccc2)cc1,208 to 211
14,N=C(N)N(CCCC(C=O)NC(=O)C1CCCN1C(=O)c1cc2ccccc2[nH]1)C(=O)OCc1ccccc1 (centres undefined),111 to 133
15,O=c1[nH]c(-c2ccccn2)nc(C(F)(F)F)c1I,186 to 187
16,COc1ccc(C2(O)C(=O)Nc3ccc(Cl)cc32)cc1 (centres undefined),202
17,Nn1cnn(C2CCc3ccccc3C2)c1=S (centres undefined),147 to 150
18,O=c1[nH]c2ncc(-c3ccc(-c4n[nH]c(CN5CCOCC5)n4)cc3)nc2n1CC1CCOCC1,281 to 283
19,CCc1cc2cc([N+](=O)[O-])ccc2s1,55
20,CCCOC(=O)C(Br)=CC1C(C(=O)OC(C#N)c2cccc(Oc3ccccc3)c2)C1(C)C (centres undefined),64
21,CCCCc1ccccc1C1C(C(=O)OCC)=C(CCC)Nc2[nH]ncc21 (centres undefined),175
22,CCOC(=O)c1cn(CCc2cccc(C(F)(F)F)c2)c2cc(C3CC3)nn2c1=O,140 to 145
23,O=C(c1c(F)cccc1F)N1COCN(c2ccc(Cl)cc2)C1=O,125 to 126
24,O=C(NN=C1c2ccc(F)cc2CCC1c1ccccc1)Nc1ccc(C(F)(F)F)cc1 (centres undefined),158 to 160
25,C[C@H](NC(=O)c1c[nH]c2ncc(-c3ccc(C(F)(F)F)cc3)nc12)C(C)(C)C,> 300

row,Structure (SMILES),melting point [°C]
1,CCCCOC(=O)c1c(CSc2nccn2C)nc2cc(OC)c(OC)cc2c1-c1ccc(OC)c(OC)c1,131 to 132
2,CC(C)Nc1nc2cc(Cl)c(Cl)cc2[nH]1,218 to 220
3,Cc1ccc(-c2ccc3c(c2)C=C(C(=O)Nc2ccc(CNC4CCCCC4)cc2)CCO3)cc1,183 to 184
4,CCn1c2c(c3ccccc31)SCCC2(C)C=O (centres undefined),88.5 to 90
5,CC(C)(C)OC(=O)CN1CC(c2ccsc2)SCC(N)C1=O (centres undefined),115 to 117
6,CC(C)=CCOc1ccc(C(=O)C=Cc2cccnc2)c(O)c1,177 to 179
7,ICCCCCCc1ccc(-c2ccccc2)cc1,77 to 77.5
8,N#CC1C(=O)NC(=O)C12C(=O)N(Cc1ccc(Br)cc1F)c1ccccc12 (centres undefined),208 to 210
9,O=C(NC(c1ccccc1)c1ccccc1)c1c[nH]cn1,201 to 202
10,Cc1cnc(-c2cc(F)ccc2CNC(=O)c2nc3n(c(=O)c2OCc2ccccc2)CCOC3(C)C)o1,186
11,O=C(Nc1ccc(C(=O)N2CCc3cn[nH]c3-c3sccc32)cc1)c1ccccc1-c1ccccc1,280 to 284
12,O=C1c2ccccc2C(=O)N1C(Cc1ccccc1)CP(=O)(O)O (centres undefined),127 to 130
13,Cc1c(N2CC(C)[C@@](N)(CF)C2)c(F)cc2c(=O)c(C(=O)O)cn([C@@H]3C[C@@H]3F)c12 (some centres undefined),200 to 203
14,O=C(Nc1ccccc1)OCC1c2ccccc2Oc2ccccc21,180 to 181
15,CCCCOc1ccc(S(C)(=O)=O)cc1-c1nc2c(CC)n(CCOC)nc2c(=O)[nH]1,174 to 176
16,CN(C)c1c[nH]c2ncccc12,144 to 152
17,Cn1c(-c2ccc(-c3ccccc3)cc2)cnc1[C@H](Cc1ccccn1)N(C=O)c1cc2cc(Br)ccc2o1,180 to 182
18,C=CCOCCc1ccc(OCC(O)CNC(C)C)cc1 (centres undefined),52 to 53
19,CCN(CC)CC1CCCCN1CCCCN1c2ccccc2C(=O)Nc2cccnc21 (centres undefined),112
20,c1ccc2c(c1)c1ccccc1n2CCCCCCn1c2ccccc2c2ccccc21,124 to 126
21,CS(=O)(=O)c1ccc(-c2c(OCC(=O)c3ccc(F)cc3)nn(CC(=O)c3ccc(F)cc3)c2-c2ccc(F)cc2)cc1,191 to 193
22,Cc1ncc2ccc(-c3cccs3)nc2n1,175 to 180
23,O=c1ccc(-c2c(-c3ccccc3)nn3ccccc23)nn1C1CCC2(CC1)OCCO2,189 to 190
24,O=C(C1CCN(c2ccncc2)CC1)N1CCCN(S(=O)(=O)c2ccc3ccccc3c2)CC1,178 to 180
25,CC(=Cc1ccccc1)c1ccc2c(c1)SC(C)(C)S2,57 to 58

row,Structure (SMILES),melting point [°C]
1,CCCCOc1c2ccccc2nc2c1c(C)nn2-c1ccccn1,59 to 61
2,O=C(C=C(c1ccccc1)N1CNc2cccnc21)OCCC(OCCCc1ccc(Cl)cc1)C(=O)O (centres undefined),95
3,Cn1c(-c2ccccc2)c(C2=CCC(C(=O)O)(C(=O)O)CC2)c2ccccc21,210 to 211
4,COC(=O)c1nc2n(n1)-c1ccc(Cl)cc1N(c1ccccc1)C2,190 to 194
5,Cc1ccccc1Nc1nc(N(C)c2ccccc2)c2cccc(OCCO)c2n1,158 to 160
6,Nc1cc(OCCO)ncn1,133 to 137
7,Fc1ccc(-c2[nH]cc(C3=CC4CCC(C3)N4)c2-c2ccncc2)cc1 (centres undefined),212 to 213
8,NC(=O)c1cc2cc(OC(F)(F)F)cc(NS(=O)(=O)c3cccs3)c2[nH]1,> 300
9,CC(C)OC(=O)C(C(N)=O)=C1SCS1,128 to 129
10,COC(=O)C(Cc1ccccc1)NC(=O)C(Cc1ccc(OC(C)(C)C)cc1)NC(=O)OCc1ccccc1 (centres undefined) (Cbz-Tyr(tBu)-Phe-OMe; configuration not given here),106 to 107
11,Nc1c(SC(F)(F)F)nc(Cl)n1-c1c(Cl)cc(C(F)(F)F)cc1Cl,172
12,COc1ccc(C(=O)C2=C(c3ccccc3)c3ccc(OC)cc3S2=O)cc1 (centres undefined),191 to 192
13,COc1ccc(-n2nc(Sc3cc(C)cc(C)c3)c(C)c(C#N)c2=O)cc1,175 to 177
14,CCC(CO)(c1cccs1)N(C)C (centres undefined),66 to 68
15,COC(=O)c1nc(-c2ccc(Cl)c(OC)c2F)cc(N)c1Cl,141 to 143
16,Cc1nc(NC(=O)c2ccc(F)cc2Cl)sc1C(=O)NCc1ccccc1,95 to 96
17,O=C(Nc1ccc(OC(F)(F)F)cc1)NC1CCN(C(=O)c2ccc(Cl)nc2)CC1,208 to 209
18,OC1CSC(Oc2cccc(-c3ccncc3)n2)C(O)C1O (centres undefined),178
19,CNc1cccc(S(=O)(=O)NC(=O)Nc2nc(OC)cc(OC)n2)n1,166 to 168
20,CCOC(=O)c1cnc(-c2cc3cccc(NS(=O)(=O)c4cccs4)c3n2COC)s1,133 to 134
21,COc1ccc([C@@H]2c3ccccc3C[C@@H]3CC(=O)NCCN32)cc1 (racemic),196 to 198
22,CC(=O)NC(=CBr)C(=O)OC(C)(C)C,106 to 107
23,CC(C)Cn1cnc2cnc3cccnc3c21,82 to 84
24,CN(C)CCOc1ccc2[nH]c(C(=O)N3CC(CCl)c4c3cc([N+](=O)[O-])c3cc(S(=O)(=O)NCCO)ccc43)cc2c1 (centres undefined),205 to 210
